Measured values as given in patent US20120108538A1, “SULFATED POLYSACCHARIDES HAVING ANTIPLASMODIAL ACTIVITY AND METHODS AND PRODUCTS FOR IDENTIFYING ANTIPLASMODIAL ACTIVITY” (priority 2009, published 2012).
“Also recorded” adds a separate entry of the source.

Assays:
[1] = test system: P. falciparum blood stage growth; assay: Growth inhibition assay (GIA), flow cytometry; assay type: cell-based, Plasmodium falciparum; conditions: for inhibition of different P. falciparum lines: 3D7, W2mef, D10, E8B, XIE, HCS3, SA-dependent and SA-independent invasion
Experimental: P. falciparum was cultured as described. Parasites were maintained in culture media of RPMI-HEPES supplemented with 5% (vol/vol) heat inactivated (56° C. 1 hr) human serum (Australian Red Cross Blood Bank),. […] (Gibco), 10mM L-glutamine (Gibco) and 25 mM […]. Parasites were grown at 37° C., 2% hematocrit, O+ human erythrocytes (Australian Red Cross Blood Bank), 1% O2 4% CO2 95% N2 atmosphere. Sorbitol (Sigma-Aldrich) was used to synchronize cultures. 32. Persson K E, Lee C T, Marsh K, Beeson J G (2006) Development and optimization of high-throughput methods to measure Plasmodium falciparum-specific growth inhibitory antibodies. J Clin Microbiol 44: 1665-1673.33. Lambros C, Vanderberg J P (1979) Synchronization of Plasmodium falciparum erythrocytic stages in culture. J Parasitol 65: 418-420.
Heparin and K5 polysaccharides (Table 1) were tested for inhibitory activity against P. falciparum parasites using high throughput growth inhibitory assays (GlAs). Duplicate 25 μl suspensions of synchronized parasites, 2% parasitemia (32 hr trophozoite), 1% hematocrit with normal or enzymatically treated erythrocyctes, were incubated with inhibitory compounds in 96 well sterile U-bottom plates (Falcon). For humidification, outside wells were filled with sterile human tonicity phosphate-buffered saline (HT-PBS). Plates were incubated as for parasite culture for 44 hrs and analyzed. Parasites were stained with 10 μg/mL ethidium bromide (EtBr) (BioRad), HT-PBS, 1 hr in darkness. Cells were washed and re-suspended in 200 μL HT-PBS. Parasitemia was measured using FACSCalibur flow-cytometry. Data were analyzed using FlowJo (Tree Star), gating on intact erythrocytes and determining parasitemia by EtBr staining. Inhibitory effects of compounds were expressed as percent growth of uninhibited controls (HT-PBS) for each experiment.
Erythrocytes were treated with neuraminidase, chymotrypsin and trypsin as described previously. Erythrocytes were washed with RPMI-HEPES and incubated with neuraminidase ([…], 15 minutes), chymotrypsin (1 mg/mL, 45 minutes) or trypsin (100 μg/mL, […]) at 37° C. Neuraminidase treated bells were washed three times with RPMI-HEPES and chymotrypsin and trypsin treated cells were washed once with culture media and twice with RPMI-HEPES and then used in GIAs. 34. Persson K E, McCallum F J, Reiling L, Lister N A, Stubbs J, et al. (2008) Variation in use of erythrocyte invasion pathways by Plasmodium falciparum mediates evasion of human inhibitory antibodies. J Clin Invest 118: 342-351.

lactoferrin = target: T1, lactoferrin (Homo sapiens, UniProt P02788); assay: Heparin-BSA binding assay (positive control protein); conditions: data not shown
T1 construct: purchased
Experimental: Recombinant merozoite antigens were coated (1 μg/mL) onto 96 well plates (Nunc Maxisorb) in HT-PBS overnight at 4° C. Plates were washed and blocked with 1% casein, 1 hr, room temperature. Plates were incubated with heparin-BSA conjugate with soluble inhibitors and detected with anti-BSA (rabbit) (Sigma-Aldrich) antibodies and anti-rabbit -HRP. Detection was performed with 2,2′-azino-bis(3-ethylbenzthiazoline-6-sulphonic acid) (Sigma-Aldrich) monitored for colour change and measured for absorbance at 405 nm. All incubations were performed in HT-PBS 0.1% casein 0:05% Tween20, 1 hr at room temperature. Plates were washed 3 times HT-PBS 0.05% Tween20 between incubations.

MSP1-42 = MSP1-42 (Plasmodium falciparum, UniProt Q8I0U8); assay: Binding of native merozoite proteins to heparin-agarose beads with soluble inhibitors; design: proteolytically processed into 83 kDa, 30 kDa, 38 kDa and a C-terminal 42kDa (MSP1-42) fragment; endogenous in cells; host or cells: P. falciparum schizont-stage cultures, Triton X-100 extract; species or system P. falciparum; conditions: soluble inhibitor 200 μg/mL
From the text: Synchronized schizont stage (40-48 hr, 5-8% parasitemia) cultures were used for protein extraction. Uninfected erythrocytes were lysed with 0.15% saponin (Kodak) on ice for ten minutes. Remaining pellets were washed three times with cold HT-PBS. Protein from schizonts was extracted with 5 times volume of 1% TritonX100 (TX100) (Sigma-Aldrich, Australia), HT-PBS with protease inhibitors (Roche). Insoluble components were pelleted by centrifugation and supernatants collected. Schizont TX100 extracted proteins were bound to heparin-agarose beads (Sigma-Aldrich, Australia) as previously described. Heparin-agarose beads were washed once with 1% casein in PBS, once in PBS, and then blocked with 1% casein in PBS overnight at 4° C. TX100 merozoite protein extracts where incubated with beads containing 0.1% casein and 200 μg/mL of test inhibitor, or PBS as control, overnight at 4° C.; 50 μL of packed beads and 100 μL protein and inhibitor were used or each test sample. Inhibitors used were heparin and CSC. Unbound proteins in the supernatant were collected through Micro Bio-Spin Chromatography Columns (Bio-Rad). After incubation, beads were washed five times with PBS containing 0.1% casein and 1% Triton X-100. Bound proteins were eluted from beads with 50 μL of warmed reducing sample buffer. Bound and unbound proteins were separated by SDS-PAGE under reducing conditions and blotted onto membranes for probing with antibody detection with anti-MSP1 or anti-EBA175. 36. Baum J, Chen L, Healer J, Lopaticki S, Boyle M, et al. (2009) Reticulocyte-binding protein homologue 5—an essential adhesin involved in invasion of human erythrocytes by Plasmodium falciparum: Int J Parasitol 39: 371-380.

T1 sequence (P02788 20-710, species assumed): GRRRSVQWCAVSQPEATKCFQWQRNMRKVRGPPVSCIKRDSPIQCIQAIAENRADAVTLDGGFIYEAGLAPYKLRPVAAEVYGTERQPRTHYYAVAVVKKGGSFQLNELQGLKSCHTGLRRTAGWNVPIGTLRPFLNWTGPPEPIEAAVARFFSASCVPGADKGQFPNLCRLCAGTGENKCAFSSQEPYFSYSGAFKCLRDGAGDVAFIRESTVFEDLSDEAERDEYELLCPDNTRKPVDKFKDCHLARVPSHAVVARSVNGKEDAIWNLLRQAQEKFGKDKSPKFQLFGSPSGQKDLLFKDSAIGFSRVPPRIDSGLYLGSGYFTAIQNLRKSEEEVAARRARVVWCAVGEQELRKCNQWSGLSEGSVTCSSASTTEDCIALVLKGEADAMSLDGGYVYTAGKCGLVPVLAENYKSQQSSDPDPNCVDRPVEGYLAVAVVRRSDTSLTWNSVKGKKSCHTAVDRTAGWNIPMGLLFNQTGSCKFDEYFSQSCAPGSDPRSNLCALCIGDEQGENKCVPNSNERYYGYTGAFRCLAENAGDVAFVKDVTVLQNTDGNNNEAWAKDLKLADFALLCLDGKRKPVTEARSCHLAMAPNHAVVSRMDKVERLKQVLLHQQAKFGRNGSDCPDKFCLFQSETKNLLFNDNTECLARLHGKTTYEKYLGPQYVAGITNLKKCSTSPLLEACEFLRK
MSP1-42, sequence (Q8I0U8 1327-1699): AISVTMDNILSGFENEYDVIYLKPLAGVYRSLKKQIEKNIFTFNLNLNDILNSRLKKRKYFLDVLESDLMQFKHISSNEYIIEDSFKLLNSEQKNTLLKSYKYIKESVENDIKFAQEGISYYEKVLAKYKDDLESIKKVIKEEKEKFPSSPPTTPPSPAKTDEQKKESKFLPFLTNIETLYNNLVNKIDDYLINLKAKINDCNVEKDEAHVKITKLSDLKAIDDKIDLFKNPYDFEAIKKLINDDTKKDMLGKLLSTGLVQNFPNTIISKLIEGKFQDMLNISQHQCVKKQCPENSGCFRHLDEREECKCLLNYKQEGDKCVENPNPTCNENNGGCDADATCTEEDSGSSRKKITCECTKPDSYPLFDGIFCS

With Heparin as the substance, how does the “inhibition of different P. falciparum lines” value [1] read?
Its value is “inhibited to similar levels”.

What about the “inhibition of different P. falciparum lines” value ([1]; listed as Heparin) of the same substance?
Its value is “inhibited all parasite lines tested; also recorded: inhibited at equal levels”.

And the “inhibition of invasion into enzyme-treated versus control erythrocytes” value ([1]; 3D7, neuraminidase, trypsin, chymotrypsin treated erythrocytes)?
The value was “equivalent”.

What about the “IC50, inhibition of P. falciparum blood stage growth in GIA” value ([1]; 3D7 parasite line, one cycle of parasite growth) of the same substance?
The value was 19 µg/mL.

What about the “selection of heparin-resistant parasites” value ([1]; 3D7 selected once or twice with heparin 100 μg/mL for 48 hrs) of the same substance?
The value was “no evidence that Applicant were able to select for increased resistance”.

And the “IC50 of heparin in combination with AMA1-binding peptide” value ([1]; AMA1-binding peptide at 6.25 μg/mL)?
The value was roughly 3 µg/mL.

And the “parasite growth over one cycle of replication” value ([1]; heparin 100 μg/mL)?
The value was “a very low level of parasite growth”.

And the combination with pyrimethamine ([1]; heparin with increasing pyrimethamine)?
Its combination with pyrimethamine is “acted in an additive manner”.

And the “inhibition of lactoferrin binding to heparin-BSA” value (lactoferrin)?
Its value is “inhibited”.

What about the “inhibition of native MSP1-42 binding to heparin-agarose beads” value (MSP1-42) of the same substance?
The value was “effectively inhibited”.
